Reference: EPA's ToxValDB 9.5 (doi:10.2903/j.efsa.2013.3182)
≈ marks a conversion by molar mass, not a printed value.

Tests used:
[1] = system: Typhlodromus pyri; test: LR50; higher = less toxic; conditions: chronic/long-term; duration: 7 days; mortality
[2] = system: Aphidius rhopalosiphi; test: LR50; higher = less toxic; conditions: chronic/long-term; duration: 7 days; mortality
[3] = system: Tagia sp.; conditions: acute; duration: 14 days; mortality
[4] = system: Anas platyrhynchos
[5] = system: Daphnia magna; conditions: chronic/long-term; duration: 21 days; reproduction
[6] = system: Pimephales promelas; conditions: chronic/long-term; duration: 40 days; time to hatch
[7] = system: Rattus norvegicus; conditions: acute; oral; mortality
[8] = system: Bibionidae; conditions: chronic/long-term; duration: 28 days
[9] = system: Colinus virginianus; conditions: acute, oral, mortality
[10] = system: Oncorhynchus mykiss; conditions: acute; duration: 96 hours; mortality
[11] = system: Apis mellifera; conditions: acute, duration: 48 hours, mortality
[12] = system: Canidae; conditions: oral, Dog Other, organ weight

In the case of `COc1cc(OC)n2nc(NS(=O)(=O)c3c(C(F)(F)F)ccnc3OC)nc2n1` [Pyroxsulam], the LR50 [1] is reported as over 37.5 g/ha, the LR50 [2] is reported as over 37.5 g/ha and the LC50 [3] is reported as over 10000 mg/kg. For the same molecule, the LD50 ([4]; acute, oral, unspecified, mortality) was over 2000 mg/kg-day, the NOAEL ([4]; reproductive) was 46.3 mg/kg-day and the NOEC [5] was 10.4 mg/L. The NOEC [6] was 10.1 mg/L, the LD50 [7] was over 2000 mg/kg-day and the NOEC [8] was 100 mg/L. It also gave an LC50 ([9]; diet) of over 988 mg/kg-day, an LD50 [9] of over 2000 mg/kg-day and an LC50 [10] of 5.9 µg/mL (≈ 13.6 µM). The LD50 ([11]; dermal) was over 100 µg/piece, the LD50 ([11]; oral, unspecified) was over 107 µg/piece and the NOAEL ([12]; chronic, duration: 1 years) was 89 mg/kg-day. It also gave an NOAEL ([12]; subchronic, duration: 90 days) of 100 mg/kg-day.
